Results on 27 compounds are retold here after patent US4060527A, “Pyrido[2,3-c]-acridine-1-hydroxy-2-carboxylic acid derivatives” (Fuji Chemical Industries, Ltd., priority 1975, dated 1977).

By MIC is commonly meant the least concentration at which growth counts as inhibited.

The structures appear in SMILES notation. Values after ≈ are worked out from the molar mass of the structure shown.

For one test, the system named is Staphylococcus aureus. As to the kind of experiment: Antibacterial activity (MIC) against Staphylococcus aureus as Gram-positive bacterium. It is filed as cell-based. The settings on record: Table 3, class symbols; for MIC: Staphylococcus aureus, read-out: Antibacterial Activity (MIC) Staph. aureus. The protocol: (§1) Some of the compounds of this invention were tested as to their antibacterial activity (MIC, mcg/ml) against Staph. aureus as Gram-positive bacterium and E. coli as Gram-negative bacterium. In the table, the antibacterial activity of 0.09 to 1.25 mcg/ml. is indicated as A1, and the antibacterial activity of more than 1.25 mcg/ml. and not more than 2.5 mcg/ml. is indicated as A2.

For the next test, the system named is Escherichia coli. As to the kind of experiment: Antibacterial activity (MIC) against Escherichia coli as Gram-negative bacterium. The class given is cell-based. The settings on record: Table 3, class symbols; for MIC: Escherichia coli, read-out: Antibacterial Activity (MIC) E. coli. The protocol: as §1

In the case of `O=C(O)c1cnc2ccc3cc4ccc(N(CO)CO)cc4nc3c2c1O` [Compound F-916, Pyrido[2,3-c]-acridine-1-hydroxy-10-di-(hydroxymethyl)amino-2-carboxylic acid], the MIC with Staphylococcus aureus and in the test with Escherichia coli was 0.09 to 1.25 mg/L (≈ 0.246 to 3.42 µM) each time.

On to `O=C(O)c1ccc2nc3c(ccc4ncc(C(=O)O)c(O)c43)cc2c1` [Compound F-935, Pyrido[2,3-c]-1-hydroxy-2,9-dicarboxylic acid], for which the MIC in the test on Staphylococcus aureus and in the test on Escherichia coli was 1.25 to 2.5 mg/L (≈ 3.74 to 7.48 µM) each time.

Take `CN(C)c1c2ccccc2nc2c1ccc1ncc(C(=O)O)c(O)c12` [Compound F-869, Pyrido[2,3-c]-acridine-1-hydroxy-7-dimethylamino-2-carboxylic acid]: the MIC in the test with Staphylococcus aureus and in the test on Escherichia coli was 0.09 to 1.25 mg/L (≈ 0.27 to 3.75 µM) in each case.

Consider `O=C(O)c1cnc2ccc3c(-c4ccc(I)cc4)c4ccccc4nc3c2c1O` [Compound F-789, Pyrido[2,3-c]-acridine-1-hydroxy-7-p-iodophenyl-2-carboxylic acid], for which the MIC with Staphylococcus aureus and with Escherichia coli was 0.09 to 1.25 mg/L (≈ 0.183 to 2.54 µM) each time.

On to `O=C(O)c1cnc2ccc3cc4ccc([N+](=O)[O-])cc4nc3c2c1O` [Compound F-892, Pyrido[2,3-c]-acridine-1-hydroxy-10-nitro-2-carboxylic acid], for which the MIC in the test with Staphylococcus aureus and in the test with Escherichia coli was 0.09 to 1.25 mg/L (≈ 0.268 to 3.73 µM) each time.

As for `CC(=O)OCCNc1cc2cc3ccccc3nc2c2c(O)c(C(=O)O)cnc12` [Compound F-925, Pyrido[2,3-c] -acridine-1-hydroxy-5-acetoxyethylamino-2-carboxylic acid], in the test on Staphylococcus aureus, the “Antibacterial Activity (MIC) Staph. aureus” value was “A1 (antibacterial activity of 0.09 to 1.25 mcg/ml.)”. The “Antibacterial Activity (MIC) E. coli” value with Escherichia coli was “A1 (antibacterial activity of 0.09 to 1.25 mcg/ml.)”.

For `O=C(O)c1cnc2c(CO)cc3cc4ccccc4nc3c2c1O` [Compound F-893, Pyrido[2,3-c]-acridine-1-hydroxy-5-hydroxymethyl-2-carboxylic acid], the MIC with Staphylococcus aureus was 1.25 to 2.5 mg/L (≈ 3.9 to 7.81 µM); in the test with Escherichia coli it was 0.09 to 1.25 mg/L (≈ 0.281 to 3.9 µM).

In the case of `C=Cc1c2ccccc2nc2c1ccc1ncc(C(=O)O)c(O)c12` [Compound F-690, Pyrido[2,3-c]-acridine-1-hydroxy-7-vinyl-2-carboxylic acid], the MIC in the test with Staphylococcus aureus and with Escherichia coli was 1.25 to 2.5 mg/L (≈ 3.95 to 7.9 µM) throughout.

`C=CCc1c2ccccc2nc2c1ccc1ncc(C(=O)O)c(O)c12` [Compound F-694, Pyrido[2,3-c]-acridine-1-hydroxy-7-allyl-2-carboxylic acid]: the minimum inhibitory concentration (MIC) with Staphylococcus aureus lay in the range of 1.25 to 2.5 mg/L (≈ 3.78 to 7.57 µM); with Escherichia coli, 0.09 to 1.25 mg/L (≈ 0.272 to 3.78 µM).

`O=C(O)c1cnc2ccc3cc4cc(N(CO)CO)ccc4nc3c2c1O` [Compound F-915, Pyrido[2,3-c]-acridine-1-hydroxy-9-di-(hydroxymethyl)amino-2-carboxylic acid]: the MIC with Staphylococcus aureus and in the test on Escherichia coli was 0.09 to 1.25 mg/L (≈ 0.246 to 3.42 µM) each time.

Consider `O=C(O)c1cnc2c(Br)cc3cc4ccccc4nc3c2c1O` [Compound F-840, Pyrido[2,3-c]-acridine-1-hydroxy-5-bromo-2-carboxylic acid], for which the MIC with Escherichia coli lay in the range of 0.09 to 1.25 mg/L (≈ 0.244 to 3.39 µM).

Consider `O=C(O)c1cnc2ccc3cc4cc(CO)ccc4nc3c2c1O` [Compound F-895, Pyrido[2,3-c]-acridine-1-hydroxy-9-hydroxymethyl-2-carboxylic acid], for which the figures for the MIC in the test with Staphylococcus aureus and with Escherichia coli were 1.25 to 2.5 mg/L (≈ 3.9 to 7.81 µM) and 0.09 to 1.25 mg/L (≈ 0.281 to 3.9 µM), respectively.

Consider `CS(=O)(=O)c1ccc2nc3c(ccc4ncc(C(=O)O)c(O)c43)cc2c1` [Compound F-890, Pyrido[2,3-c]-acridine-1-hydroxy-9-methylsulfonyl-2-carboxylic acid], for which the MIC in the test with Staphylococcus aureus and with Escherichia coli was 0.09 to 1.25 mg/L (≈ 0.244 to 3.39 µM) throughout.

For `NCc1cc2cc3ccccc3nc2c2c(O)c(C(=O)O)cnc12` [Compound F-901, Pyrido[2,3-c]-acridine-1-hydroxy-5-aminomethyl-2-carboxylic acid], the MIC in the test with Staphylococcus aureus and in the test on Escherichia coli was 1.25 to 2.5 mg/L (≈ 3.91 to 7.83 µM) in each case.

On to `O=C(O)c1cnc2ccc3c(Br)c4ccccc4nc3c2c1O` [Compound F-841, Pyrido[2,3-c]-acridine-1-hydroxy-7-bromo-2-carboxylic acid], for which the MIC in the test with Escherichia coli lay within 0.09 to 1.25 mg/L (≈ 0.244 to 3.39 µM).

As to `O=C(O)c1cnc2c(O)cc3cc4ccccc4nc3c2c1O` [Compound F-929, Pyrido[2,3-c]-1,5-dihydroxy-2-carboxylic acid], the MIC in the test with Staphylococcus aureus and in the test with Escherichia coli was 0.09 to 1.25 mg/L (≈ 0.294 to 4.08 µM) in each case.

As for `O=C(O)c1cnc2c(N(CO)CO)cc3cc4ccccc4nc3c2c1O` [Compound F-913, Pyrido[2,3-c]-acridine-1-hydroxy-5-di-(hydroxymethyl)amino-2-carboxylic acid], the MIC in the test with Staphylococcus aureus and in the test on Escherichia coli was 0.09 to 1.25 mg/L (≈ 0.246 to 3.42 µM) in each case.

In the case of `CS(=O)(=O)c1c2ccccc2nc2c1ccc1ncc(C(=O)O)c(O)c12` [Compound F-889, Pyrido[2,3-c]-acridine-1-hydroxy-7-methylsulfonyl-2-carboxylic acid], the MIC in the test with Staphylococcus aureus and in the test with Escherichia coli was 0.09 to 1.25 mg/L (≈ 0.244 to 3.39 µM) in each case.

As for `Nc1c2ccccc2nc2c1ccc1ncc(C(=O)O)c(O)c12` [Compound F-849, Pyrido[2,3-c]-acridine-1-hydroxy-7-amino-2-carboxylic acid], the MIC in the test with Staphylococcus aureus and in the test on Escherichia coli was 1.25 to 2.5 mg/L (≈ 4.09 to 8.19 µM) in each case.

On to `CC(=O)OCCNc1ccc2nc3c(ccc4ncc(C(=O)O)c(O)c43)cc2c1` [Compound F-927, Pyrido[2,3-c]-acridine-1-hydroxy-9-acetoxyethylamino-2-carboxylic acid], for which the “Antibacterial Activity (MIC) Staph. aureus” value in the test on Staphylococcus aureus is “A1 (antibacterial activity of 0.09 to 1.25 mcg/ml.)”. The “Antibacterial Activity (MIC) E. coli” value in the test on Escherichia coli was “A1 (antibacterial activity of 0.09 to 1.25 mcg/ml.)”.

Regarding `CC(=O)OCCNc1c2ccccc2nc2c1ccc1ncc(C(=O)O)c(O)c12` [Compound F-926, Pyrido[2,3-c]-acridine-1-hydrox-7-acetoxyethylamino-2-carboxylic acid], in the test on Staphylococcus aureus, the “Antibacterial Activity (MIC) Staph. aureus” value is given as “A1 (antibacterial activity of 0.09 to 1.25 mcg/ml.)”. The “Antibacterial Activity (MIC) E. coli” value in the test on Escherichia coli is “A1 (antibacterial activity of 0.09 to 1.25 mcg/ml.)”.

For the compound `O=C(O)c1cnc2c(I)cc3cc4ccccc4nc3c2c1O` [Compound F-844, Pyrido[2,3-c]-acridine-1-hydroxy-5-iodo-2-carboxylic acid], the minimal inhibitory concentration (MIC) in the test with Staphylococcus aureus and in the test with Escherichia coli was 0.09 to 1.25 mg/L (≈ 0.216 to 3 µM) each time.

For `CCNc1cc2cc3ccccc3nc2c2c(O)c(C(=O)O)cnc12` [Compound F-856, Pyrido[2,3-c]-acridine-1-hydroxy-5-ethylamino-2-carboxylic acid], the minimal inhibitory concentration (MIC) in the test on Staphylococcus aureus and with Escherichia coli was 0.09 to 1.25 mg/L (≈ 0.27 to 3.75 µM) each time.

For the compound `O=C(O)c1cnc2ccc3c(O)c4ccccc4nc3c2c1O` [Compound F-930, Pyrido[2,3-c]-1,7-dihydroxy-2-carboxylic acid], the MIC in the test on Staphylococcus aureus and with Escherichia coli was 0.09 to 1.25 mg/L (≈ 0.294 to 4.08 µM) each time.

As to `O=C(O)c1cnc2ccc3c(N(CO)CO)c4ccccc4nc3c2c1O` [Compound F-914, Pyrido[2,3-c]-acridine-1-hydroxy-7-di-(hydroxymethyl)amino-2-carboxylic acid], the MIC in the test with Staphylococcus aureus and in the test with Escherichia coli was 0.09 to 1.25 mg/L (≈ 0.246 to 3.42 µM) in each case.

Regarding `O=C(O)c1cnc2ccc3cc4cc(O)ccc4nc3c2c1O` [Compound F-931, Pyrido[2,3-c]-1,9-dihydroxy-2-carboxylic acid], the MIC in the test on Staphylococcus aureus and in the test with Escherichia coli was 0.09 to 1.25 mg/L (≈ 0.294 to 4.08 µM) in each case.

With `O=C(O)c1cnc2ccc3cc4cccc(O)c4nc3c2c1O` [Compound F-932, Pyrido[2,3-c]-1,11-dihydroxy-2-carboxylic acid], the minimal inhibitory concentration (MIC) in the test with Staphylococcus aureus and with Escherichia coli was 0.09 to 1.25 mg/L (≈ 0.294 to 4.08 µM) throughout.
